Assay results from patent US9359451B2, “Methods and compositions for treating trauma-hemorrhage using estrogen and derivatives thereof” (THE UAB RESEARCH FOUNDATION, priority 2012, dated 2016).

How the values were obtained:
[1] = tested on: Male Sprague Dawley rats; test: 6 hour survival after soft tissue trauma and 60% hemorrhage without resuscitation; type: in vivo, rat; conditions: for survival from 60% blood loss: FIG. 47, 6 hour interval after MBO, all saline vehicle controls died; for survival from 60% blood loss / survival percentage for 6 hr: no resuscitation
Protocol: Note that experimental conditions were sufficiently stringent that all saline vehicle control hemorrhaged rats died. The number of subject rats was vehicle control-20, E2-SO4-21, and EE3-SO4-20. Note that the time to begin the 6 hour interval starts after the maximum bleed out (MBO). It takes approximately 45 minutes to attain the MBO. Also please note that no resuscitation is given for the duration of the 6 hour test.
Survival studies with ethinyl 17α-estradiol-3-sulfate (EE3-SO4) in rats subjected to soft tissue trauma and 60% hemorrhage were performed as has been described for E2-SO4 and E2-cyclodextrin. Briefly, Male Sprague Dawley rats were anesthetized with isoflurane and received a 5 cm laparotomy. Cannulation was performed of 2 femoral arteries (one for bleeding and the one for blood pressure monitoring) and one femoral vein to administer drug or saline. Rats were bled to 62.9% total blood volume within 45 min with a mean arterial blood pressure of 40 mmHg achieved in 10 min and maintained at the pressure throughout the bleeding procedure. At the point of maximum bleed out (MBO), estrogen compounds were administered. Survival was monitored for 6 hours following MBO.
The optimum dose of EE-3-SO4 to promote rat survival for 6 hr was determined. The doses of 0.1 mg/kg (n=6), 0.3 mg/kg (n=6), 1.0 mg/kg (n=7) and 3.0 mg/kg (n=6) were used. The respective survival percentages were 16%, 50%, 87% and 50%, respectively (FIG. 41). Vehicle controls were matched for each group and the numbers of test rats were identical as well. No vehicle controls of any group survived for 6 hr (i.e., 100% death).

[2] = tested on: Sprague-Dawley adult male rats; test: Traumatic brain injury (lateral fluid percussion): ICP, CPP and pbtO2 monitoring; type: in vivo, rat; conditions: for intracranial pressure vs untreated vehicle controls: FIG. 44, measured over a 120 min period
Protocol: Sprague-Dawley adult male rats were divided into 4 groups: vehicle, E2-SO4 (1 mg/kg), sham+vehicle and sham+E2-SO4; n=5/group. The TBI model was lateral fluid percussion injury (LFP), induced via a hydraulic pressure pulse to the anesthetized rat's exposed brain. This was introduced through a burr hole in the lateral skull prepared one day prior to LFP. A single iv dose of E2-SO4 or saline vehicle was administered 1 hr after LFP. Physiological parameters were measured 24 hr post-injury.
(§1) In a second experiment, the efficacy of E2-SO4 treatment for TBI in a lateral fluid percussion (LFP) model was examined. This involved 6 groups of rats (n=5/group). All rats received a craniectomy. Groups 1, 2, 4 and 5 received LFP injury. Groups 1 and 4 were treated with E2 (1 mg/kg) 1 hr post-injury, groups 2 and 5 were vehicle (Veh)-treated and groups 3 and 6 were sham. Groups 1-3 underwent intracranial pressure (ICP), cerebral perfusion pressure (CPP) and partial oxygen pressure (pbtO2) monitoring. Groups 4-6 underwent fludoexoyglucose (FDG)-PET/CT and diffusion tensor imaging (DTI) analysis on days 1 and 7 post-induction. Relative standard uptake values (SUV) of upper half of brain to central value, fractional anisotropy (FA) and apparent diffusion coefficient (ADC) maps were calculated.
FIG. 48B is a plot of cerebral perfusion pressure, which is a derivative of mean arterial pressure less ICP. […] The X axis is shown for an extended 2 hours to confirm stability for the various probes used.
The clinical manifestation of edema after TBI can be seen as increased intracranial pressure, with lower brain perfusion pressure and reduced oxygen tension. […] FIG. 44 compares treatments for TBI with hormones, measured over a 120 min period to control the effects of the invasive probe on pressures. The treatments are progesterone (T+progesterone: magenta), progesterone plus E2-SO4 (T+E+P: brown), E2-SO4 (T+E2SO4: red) and EE-3-SO4 (T+EE-3SO4: yellow).

[3] = tested on: mean arterial blood pressure (MAP); test: Mean arterial blood pressure spike after iv administration in hemorrhaged rats; type: in vivo, rat; conditions: for “spike” in mean arterial blood pressure (MAP) just after administration: rapid iv injection in ~1 min at MBO
Text: An additional practical matter to be resolved was removing or dampening the ever-present “spike” in mean arterial blood pressure (MAP) observed just after administration of EE-3-SO4, which was also observed with E2-CD and E2-SO4. Because this could be a threat to the hemorrhage patient by having this transient pressure rise destabilize and eject nascent hemostatic “plugs” in damaged vessels, a solution was developed for the potential problem. By giving the iv bolus of […] in a slightly longer interval over 5 min starting at MBO rather than a more rapid injection in ˜1 min (i.e., a “slow push”), the benefits of EE-3-SO4 remained while the MAP “spike” was removed. To determine the maximum reduction in the blood pressure spike studies were further conducted with a push over a 10 min period.

[4] = tested on: injured brain; test: Traumatic brain injury: FDG-PET/CT, diffusion tensor imaging and MRI edema; type: in vivo, rat; conditions: FIG. 43; day 1 and day 7 vs saline vehicle
Protocol: as §1
Rats were either treated with E2 or a saline vehicle control, where treatment is administered 1 hour after injury. […] The former is the area of deranged nerves, while the latter constitutes intact nerves.

[5] = tested on: isolated vascular rings; test: Vascular reactivity of isolated vascular rings in a physiological bath; design: species or system rat or pig
Protocol: Data to delineate the mechanism of action for EE-3-SO4 vis-à-vis effects on the cardiovascular system was acquired. While it is well known that estrogens act on the vascular system by a variety of mechanisms including vasorelaxation per se, specific confirmation of this fact for EE-3-SO4 was needed. […] Vessels are contracted by a variety of agents (i.e., endothelin-1, phenylephrine). The action(s) are measured with a force transducer and recorded digitally. […] (see FIG. 42).

[6] = tested on: Male SD rats; test: Survival and blood pressure after trauma-hemorrhage with 60% blood loss and no fluid resuscitation; type: in vivo, rat; conditions: FIG. 21; trauma and major blood loss, crystalloid resuscitation after initial 3-hour interval; all untreated controls died within 3 hours
Protocol: 16 rats were subjected to 60% removal of blood volume, using the same protocol found in Example 5.
Furthermore, crystalloid fluid resuscitation was administered following an initial 3-hour interval after the trauma and major blood loss, and rats were followed for 7 days. It has been observed that rats which survive for the initial 3 hours uniformly go on to survive for prolonged period of time and were then sacrificed. The survival rate is 68% for estrogen-treated rats, while all untreated control rats have died within the initial 3-hour interval (see FIG. 21).
Although E2 administration after trauma-hemorrhage (T-H) and fluid resuscitation produces salutary effects on organ functions, it was not known if E2 has any beneficial effects after major blood loss in the absence of fluid resuscitation. Male SD rats ˜250 g) underwent T-H (tissue trauma, BP 40 mmHg in 10 min and maintained at that BP by further blood withdrawal until maximum bleed out (MBO, 60% of total blood volume) occurred (45:t5 min)). E2 i.v. (1 mg/Kg, 0.4 ml/Kg volume, i.e., 120 μL/300 g body weight) or vehicle (cyclodextrin, CD) was then infused. No additional fluid was given for 3 hours. If rats survived, they received Ringer's lactate, 4× the MBO volume. A custom-fabricated 31p coil was placed on the surface of the rat's liver after laparotomy in another group, and spectra acquired using 4.7T NMR spectroscopy via a 31p coil in real time before and during hemorrhagic shock. Shock increased phosphomonoester and Pi with a concomitant decrease in β-ATP in both groups.

**Q.** `C[C@]12CC[C@@H]3c4ccc(OS(=O)(=O)O)cc4CC[C@H]3[C@@H]1CC[C@@H]2OS(=O)(=O)O` [E2-SO4, 17-β-estradiol 3, 17 disulfate] was tested. Which “survival from 60% blood loss” value [1] did it give?
**A.** 66%

**Q.** And the “intracranial pressure vs untreated vehicle controls” value [2]?
**A.** greatly reduce the pressure

**Q.** What about the “pbtO2 (brain tissue oxygen partial pressure)” value ([2]; TBI (LFP), 1 mg/kg iv 1 hr after injury, 24 hr post-injury, vehicle 15.8±1.3, sham 39.6) of the same compound?
**A.** 34.1±1.6 mmHg

**Q.** And the “ICP (intracranial pressure)” value ([2]; TBI (LFP), 1 mg/kg iv 1 hr after injury, measured 24 hr post-injury, TBI vehicle 17.4±0.5, sham 4.7)?
**A.** 7±0.4 mmHg

**Q.** What about the ““spike” in mean arterial blood pressure (MAP) just after administration” value [3] of the same compound?
**A.** also observed

**Q.** What about the “edema in the injured brain” value [4] of the same compound?
**A.** can reduce edema in the injured brain

**Q.** With `C#C[C@]1(O)CC[C@H]2[C@@H]3CCc4cc(OS(=O)(=O)O)ccc4[C@H]3CC[C@@]21C` [EE-3-SO4, ethinyl 17α-estradiol-3-sulfate] as the compound, how does the “survival percentage for 6 hr” value ([1]; 0.1 mg/kg at MBO, no vehicle controls survived) read?
**A.** 16%

**Q.** And the “survival percentage for 6 hr” value ([1]; 0.3 mg/kg at MBO)?
**A.** 50%

**Q.** What about the “survival percentage for 6 hr” value ([1]; 1.0 mg/kg at MBO) of the same compound?
**A.** 87%

**Q.** What about the “survival percentage for 6 hr” value ([1]; 3.0 mg/kg at MBO) of the same compound?
**A.** 50%

**Q.** And the “survival from 60% blood loss” value [1]?
**A.** 80%

**Q.** What about the “survival from 60% blood loss” value ([1]; listed as EE3-SO4) of the same compound?
**A.** exhibits enhanced survival as compared to E2-sulfate

**Q.** What about the “optimum dose to promote rat survival for 6 hr” value ([1]; doses 0.1, 0.3, 1.0 and 3.0 mg/kg tested) of the same compound?
**A.** 1.0 mg/kg

**Q.** What about the “intracranial pressure vs untreated vehicle controls” value [2] of the same compound?
**A.** greatly reduce the pressure

**Q.** What about the “reduction in the blood pressure spike with slow push” value ([3]; iv bolus over 5 min starting at MBO, no further benefit at 10 minutes) of the same compound?
**A.** complete reduction at 5 minutes

**Q.** And the ““spike” in mean arterial blood pressure (MAP) just after administration” value [3]?
**A.** observed

**Q.** What about the “potency on a molar equivalent basis” value ([5]; FIG. 42, compared with E2-SO4) of the same compound?
**A.** more potent than E2-SO4

**Q.** What about the “range of doses with linear response in promoting vessel relaxation” value ([5]; vessels contracted by endothelin-1 or phenylephrine, Kreb's buffer) of the same compound?
**A.** 10 to 100000 nM

**Q.** What about the “edema in the injured brain” value [4] of the same compound?
**A.** can reduce edema in the injured brain

**Q.** With `CN[C@@H](CCCNC(=N)N)C(=O)O` [methyl arginine] as the compound, how does the “antagonism of EE-3-SO4's vessel relaxation” value ([5]; antagonist added to EE-3-SO4) read?
**A.** relaxation can be inhibited

**Q.** With `CC(=O)[C@H]1CC[C@H]2[C@@H]3CCC4=CC(=O)CC[C@]4(C)[C@H]3CC[C@]12C` [progesterone] as the compound, how does the “intracranial pressure vs untreated vehicle controls” value [2] read?
**A.** greatly reduce the pressure

**Q.** How did the survival rate [6] turn out when estrogen was run?
**A.** 68%
